{
  "source": "patent US7405037B2",
  "about": "“Methods and tools for detecting collagen degradation” (Lonza Walkersville, Inc., priority 2004, dated 2008)",
  "key": {"[1]": {"system": "primary human osteoclasts", "test": "OsteoLyse assay: release of europium chelate-labeled collagen fragments by osteoclasts", "type": "cell-based", "set-up": "inhibition of bone matrix degradation: dose or concentration left out as unconfirmed", "method": "Remove a 96-well cell culture plate to which europium chelate-labeled collagen (e.g., collagen labeled with Eu^3+-N′-(p-isothiocyanatobenzyl) diethylenetriamine-N^1,N^2,N^3-tetraacetic acid) is covalently bound from 4° C. storage and let it warm to room temperature. Seed mature osteoclasts or osteoclast precursors (human or non-human) onto the cell culture plate in medium containing M-CSF and soluble RANK ligand. If using Cambrex's primary human osteoclast precursors (Poietics™ Human Osteoclast Precursors), seed the cells at a density of 10,000 cells/well in osteoclast precursor differentiation medium (Cambrex product # PT-8001). See Example 2 for a detailed protocol for the culture of primary human osteoclast precursors (Cambrex product # 2T-110). Precursors cultured in the absence of soluble RANK ligand can serve as “undifferentiated” controls.\nCulture the cells for 6 days and then renew the cell culture medium. Fresh medium preferably contains the same concentrations of M-CSF and soluble RANK ligand as in the original day 0 medium. Unused control and differentiation media from day 0 can be frozen (on day 0) and used for the day 6 medium changes.\nAt least two different types of protocols can be used. If the assay is used to measure the effect of a test compound on differentiation of the osteoclast precursor, the test compound typically is added at day 0 and removed at day 6. However, if the assay is used to measure the effect of a test compound on mature osteoclast function (i.e., bone matrix collagen degradation), the test compound typically is added at day 6 with the new medium addition.\nThe cell culture medium can be sampled at any time after the medium change. Because a very small volume (5 to 10 μl) of medium is sampled, it is very easy to do time-course studies by repeatedly sampling the medium on sequential days. Medium volumes greater than 10 μl are unnecessary and, because an excess of fluorophore releasing reagent with respect to sample is desired, actually may lead to inefficient counting of the fluorophore as the ratio of fluorophore releasing reagent to sample decreases. […]\nDetermine the fluorescence of each well of the assay vessel in a time-resolved fluorescence fluorimeter (e.g., a Wallac Victor, with excitation at 340 nm and emission at […]) over a […] time period after an initial delay of 400 μseconds.\nPrimary human osteoclast precursors were seeded onto europium chelate-labeled collagen covalently bound to a maleic anhydride-derivatized polystyrene plate (Pierce Reacti-Bind™) at 10,000 cells/well and cultured in differentiation medium containing (1) no calcitonin, (2) calcitonin added only at day 5, or (3) calcitonin added on both days 0 and 5. Ten μl samples of culture media were counted after a total of 6 days. […]"}, "[2]": {"system": "primary human osteoclast precursors", "test": "TRAP stain (multinucleated TRAP-positive cells/well)", "type": "cell-based", "method": "Primary human osteoclast precursors were seeded onto europium chelate-labeled collagen covalently bound to a maleic anhydride-derivatized polystyrene plate at 10,000 cells/well and cultured in medium containing soluble RANK ligand with and without interferon γ. After 9 days, cell culture media were assayed for fluorescent collagen peptides as described in Example 1. Cells in the plate were subsequently stained for TRAP (Sigma # 386-A).\nIn another experiment, osteoclast precursors were cultured in differentiation medium with and without different concentrations of alendronate. After 7 days the media were renewed and, after an additional 3 days, the cell culture media were sampled as described in Example 1. Cells in the plate were subsequently stained for TRAP (Sigma # 386-A)."}, "osteoclast precursors": {"system": "osteoclast precursors", "test": "Osteoclast-mediated degradation of covalently bound FITC-labeled collagen (DQ collagen)", "type": "cell-based, human", "conditions": "1 ng/ml; days 5, 7 and 9 of culture; FITC-labeled bovine type I collagen", "method": "FITC-labeled bovine type I collagen (DQ collagen, Molecular Probes, Inc.) was covalently bound to the surface of a maleic anhydride-derivatized 96-well tissue culture plate. Osteoclast precursors were cultured, with and without differentiation, in the plate as described in Example 2. Interferon γ (1 ng/ml) was added to some wells. At days 5, 7 and 9 of culture, 10 μl samples of each well were collected and added to 200 μl phosphate-buffered saline and counted in a fluorimeter (485/535 nm)."}, "[3]": {"conditions": "9 days of culture, medium with soluble RANK ligand"}},
  "note": "No end group written: not given here.",
  "data": [
    {"molecule": "calcitonin (CGNLSTCMLGTYTQDFNKFHTFPQTAIGVGAP; ends and bridges not checked; cysteine pairing not given here; UniProt P01258 85-116, looked up)", "values": [
      {"measurement": "effect on resorptive activity of the osteoclasts", "setting": "[1]; calcitonin added on days 0 and 5 (prior exposure on day 0)", "result": "little effect"},
      {"measurement": "inhibition of bone matrix degradation", "setting": "[1]; calcitonin for 24 hours (added day 5 of culture), counted after 6 days", "result": 88, "unit": "%"}
    ]},
    {"molecule": "interferon γ [cytokine added to osteoclast precursor cultures]", "values": [
      {"measurement": "IC50, percent inhibition relative to controls, OsteoLyse assay", "setting": "[1]; [3]", "result": "approximately 0.1 ng/ml"},
      {"measurement": "IC50, percent inhibition relative to controls, TRAP assay", "setting": "[2]; [3]", "result": "approximately 0.1 ng/ml"},
      {"measurement": "inhibition of osteoclast-mediated collagen degradation", "setting": "osteoclast precursors", "result": "completely inhibited"}
    ]},
    {"molecule": "NCCCC(O)(P(=O)(O)O)P(=O)(O)O", "note": "[alendronate]", "values": [
      {"measurement": "IC50", "setting": "[1]; Osteoclast, OsteoLyse assay, primary human osteoclasts, read-out: IC50, in vitro inhibition of bone resorption", "result": "~2000", "unit": "nM"},
      {"measurement": "inhibition of differentiation of osteoclast precursors (multinucleated TRAP-positive osteoclasts)", "setting": "[2]; different concentrations, medium renewed after 7 days, 3 additional days", "result": "did not inhibit"}
    ]}
  ]
}
